According to ChEMBL document CHEMBL1131918, “Quantitative analysis of the kinetics of phospholipase A2 using fast atom bombardment mass spectrometry” (Bioorg Med Chem Lett, 1999):

Columns and labels:
[1] = tested on: phospholipase A2; assay: Michaelis -Menten constant against phospholipase A2 was determined; assay type: ADME; details: phospholipase A2 enzyme
[2] = Catalytic rate constant against phospholipase A2 was determined; assay type: ADME

Compound | Km [1] [µM] | k cat [2] [µM/min/mg]
CCCCCCCCCC(=O)OCC(COP(=O)([O-])OCC[N+](C)(C)C)OC(=O)CCCCCCCCC (centres undefined) | 2400 | 1.06
CCCCCCCCCC(=O)OCC(O)COP(=O)([O-])OCC[N+](C)(C)C (centres undefined) | 2300 | 1.03
